# Data published in patent publication US20030008897A1, “Method of controlling weight gain associated with therapeutic drugs” (priority 2000, published 2003).
# How the values were obtained:
# [1] = biological target: [3H]Noradenaline reuptake (Rattus norvegicus, UniProt Q9WTR4); assay: in vitro [3H]noradrenaline reuptake inhibition in rat brain tissue; assay type: biochemical; settings: means of ≧3 separate determinations
# [2] = system: female Sprague-Dawley rats; assay: clozapine-induced hyperphagia (food intake) in rats; assay type: in vivo, rat; settings: for Mean food intake ± SEM: 3 mg/kg orally, food intake over 2 h, n=10, vehicle 6.5 ± 0.9
# Experimental: Experiments were performed in individually-housed female Sprague-Dawley rats with free access to food (powdered rat chow containing 20% lard) and tap water at all times. On the day of the experiment, animals (n=10) were dosed orally with vehicle; the neuroleptic clozapine 3 mg/kg; sibutramine 3 mg/kg or sibutramine plus clozapine 3 mg/kg; and their food intake was monitored over 2 h.
SMILES,Ki [1] [µM],Mean food intake ± SEM [2] [g/kg],"effect on food intake compared to vehicle-treated control group ([2]; 3 mg/kg po, over 2 h)"
CC(NC(C)(C)C)C(=O)c1cccc(Cl)c1 (stereo not shown) [Bupropion],2.59,–,–
CN1CCN(C2=Nc3cc(Cl)ccc3Nc3ccccc32)CC1 [Clozapine],–,9.3 ± 0.7,–
"CC(C)CC(N(C)C)C1(c2ccc(Cl)cc2)CCC1 (stereo not shown) [Sibutramine, N,N-dimethyl-1-[1-(4-chlorophenyl)cyclobutyl]-3-methylbutylamine]",–,1.7 ± 0.6,significantly decreased food intake
